The source made the active and inactive calls.
Columns and labels:
Assay type in all cases: functional, cell-based
HepG2 [1] = assay: Induction of autophagy in human HepG2 cells transfected with HCV subgenomic replicon and gene knockdown by IL28A morpholinos assessed as LC3B and LAMP2 interaction at 10 uM incubated for 24 hrs in presence of anti-LC3B antibodies by co-immunoprecipitation assay
HepG2 [2] = assay: Induction of autophagy in human HepG2 cells transfected with ZIKV-NS5 and gene knockdown by IL28A morpholinos assessed as LC3B and LAMP2 interaction at 10 uM incubated for 24 hrs in presence of anti-LC3B antibodies by co-immunoprecipitation assay
HepG2 [3] = assay: Upregulation of endogenous ATG10S activated co-localisation of HBx with LAMP2 in human HepG2 cells co-transfected with HBx and ATG10-sMO by cellular immunofluorescence assay
HepG2 [4] = assay: Induction of autophagy in human HepG2 cells transfected with HCV subgenomic replicon assessed as HCV-CORE/LAMP2 combination at 10 uM incubated for 24 hrs in presence of anti-LC3B antibodies by co-immunoprecipitation assay
HepG2 [5] = assay: Induction of autophagy in human HepG2 cells transfected with HCV subgenomic replicon assessed as HCV-NS5B/ATG10/ATG10S combination at 10 uM incubated for 24 hrs in presence of anti-LAMP2 antibodies by co-immunoprecipitation assay
HepG2 [6] = assay: Induction of autophagy in human HepG2 cells transfected with HIV-RT assessed as increase in HIV-RT-P62 interaction level at 10 uM incubated for 24 hrs in presence of anti-Flag antibodies by co-immunoprecipitation assay
HepG2 [7] = assay: Upregulation of HCV-CORE in human HepG2 cells transfected with HCV sub-replicon and gene knockdown by IL28A morpholinos at 10 uM incubated for 24 hrs by western blot analysis
HepG2 [8] = assay: Upregulation of ATG10/ATG10S mRNA level in human HepG2 cells transfected with HBx upto 10 uM by RT-PCR analysis; settings: DDE = dose-dependent effect
HepG2 [9] = assay: Upregulation of ATG10/ATG10S mRNA level in human HepG2 cells transfected with ZIKV-NS5 upto 10 uM by RT-PCR analysis; settings: DDE = dose-dependent effect
HepG2 [10] = assay: Upregulation of HCV-NS5B in human HepG2 cells transfected with HCV sub-replicon and gene knockdown by IL28A morpholinos at 10 uM incubated for 24 hrs by western blot analysis
HepG2 [11] = assay: Induction of autophagy in human HepG2 cells assessed as decrease in P62 expression level upto 10 uM and measured after 6 hrs by western blot analysis; settings: DDE = dose-dependent effect
HepG2 [12] = assay: Induction of autophagy in human HepG2 cells co-transfected with ZIKV-NS5 assessed as decrease in ZIKV-NS5 protein level upto 10 uM and measured after 6 hrs by western blot analysis; settings: DDE = dose-dependent effect
HepG2 [13] = assay: Downregulation of HIV-RT in human HepG2 cells transfected with HIV-RT upto 10 uM incubated for 24 hrs by western blot analysis
HepG2 [14] = assay: Induction of autophagy in human HepG2 cells transfected with HCV sub-replicon assessed as decrease in HCV-CORE protein level upto 10 uM and measured after 6 hrs by western blot analysis; settings: DDE = dose-dependent effect
HepG2 [15] = assay: Upregulation of endogenous ATG10S activated co-localisation of HIV-RT with LAMP2 in human HepG2 cells co-transfected with HIV-RT and ATG10-sMO by cellular immunofluorescence assay
HepG2 [16] = assay: Upregulation of HBx in human HepG2 cells transfected with HBx and gene knockdown by IL28A morpholinos at 10 uM incubated for 24 hrs by western blot analysis
HepG2 [17] = assay: Upregulation of P62 in human HepG2 cells transfected with HCV sub-replicon and gene knockdown by IL28A morpholinos at 10 uM incubated for 24 hrs by western blot analysis
HepG2 [18] = assay: Upregulation of ATG10/ATG10S mRNA level in human HepG2 cells transfected with HIV-RT upto 10 uM by RT-PCR analysis; settings: DDE = dose-dependent effect
HepG2 [19] = assay: Upregulation of endogenous ATG10S activated co-localisation of HIV-RT with LAMP2 in human HepG2 cells co-transfected with HIV-RT and ATG10-misMO by cellular immunofluorescence assay
HepG2 [20] = assay: Downregulation of HBVx in human HepG2 cells co-transfected with HBVx and ATG10-misMO upto 10 uM incubated for 24 hrs by western blot analysis
HepG2 [21] = assay: Upregulation of endogenous ATG10S activated co-localisation of HBx with LC3B in human HepG2 cells co-transfected with HBx and ATG10-misMO by cellular immunofluorescence assay
HepG2 [22] = assay: Upregulation of endogenous ATG10S activated co-localisation of HBx with LAMP2 in human HepG2 cells co-transfected with HBx and ATG10-misMO by cellular immunofluorescence assay
HepG2 [23] = assay: Effect on LC3B-II protein degradation in human HepG2 cells at 10 uM pretreated with proteosome inhibitor MG132 for 12 hrs followed by compound addition and measured after 24 hrs by western blot analysis
HepG2 [24] = assay: Downregulation of HIV-RT in human HepG2 cells co-transfected with HIV-RT and ATG10-misMO upto 10 uM incubated for 24 hrs by western blot analysis
HepG2 [25] = assay: Upregulation of endogenous ATG10S activated co-localisation of ZIKV-NS5 with LC3B in human HepG2 cells co-transfected with ZIKV-NS5 and ATG10-misMO by cellular immunofluorescence assay
HepG2 [26] = assay: Upregulation of P62 in human HepG2 cells transfected with ZIKV-NS5 and gene knockdown by IL28A morpholinos at 10 uM incubated for 24 hrs by western blot analysis
HepG2 [27] = assay: Induction of autophagy in human HepG2 cells transfected with ZIKV-NS5 assessed as increase in ZIKV-NS5-LAMP2 interaction level at 10 uM incubated for 24 hrs in presence of anti-Flag antibodies by co-immunoprecipitation assay
HepG2 [28] = assay: Induction of autophagy in human HepG2 cells transfected with HBx assessed as increase in HBx-P62 interaction level at 10 uM incubated for 24 hrs in presence of anti-Flag antibodies by co-immunoprecipitation assay
HepG2 [29] = assay: Downregulation of ZIKV-NS5 in human HepG2 cells co-transfected with ZIKV-NS5 and ATG10-misMO upto 10 uM incubated for 24 hrs by western blot analysis
HepG2 [30] = assay: Downregulation of HBVx in human HepG2 cells transfected with HBVx upto 10 uM incubated for 24 hrs by western blot analysis
HepG2 [31] = assay: Effect on ZIKV-NS5 degradation in human HepG2 cells transfected with ZIKV-NS5 at 10 uM pretreated with proteosome inhibitor MG132 for 12 hrs followed by compound addition and measured after 24 hrs by western blot analysis
HepG2 [32] = assay: Upregulation of LC3B in human HepG2 cells transfected with ZIKV-NS5 and gene knockdown by IL28A morpholinos at 10 uM incubated for 24 hrs by western blot analysis
HepG2 [33] = assay: Induction of autophagy in human HepG2 cells transfected with HCV subgenomic replicon assessed as HCV-CORE/LC3B combination at 10 uM incubated for 24 hrs in presence of anti-LAMP2 antibodies by co-immunoprecipitation assay

Measured: Activity

CC[C@@H](O)c1nc(C)cc2c1C(=O)c1cc(=O)c3c(c(O)c1-2)O[C@@H]1O[C@H](C)[C@@H](OC)[C@@H](O)[C@]31O
active: HepG2 [1] | HepG2 [2] | HepG2 [3] | HepG2 [4] | HepG2 [5] | HepG2 [6] | HepG2 [7] | HepG2 [8] Dde | HepG2 [9] Dde | HepG2 [10] | HepG2 [11] Dde | HepG2 [12] Dde | HepG2 [13] | HepG2 [14] Dde | HepG2 [15] | HepG2 [16] | HepG2 [17] | HepG2 [18] Dde | HepG2 [19] | HepG2 [20] | HepG2 [21] | HepG2 [22] | HepG2 [23] | HepG2 [24] | HepG2 [25] | HepG2 [26] | HepG2 [27] | HepG2 [28] | HepG2 [29] | HepG2 [30] | HepG2 [31] | HepG2 [32] | HepG2 [33]
